Patent publication US20250034149A1, “DIHYDROPYRROLO[3,4C]-PYRAZOLE DERIVATIVES AND THEIR USE IN DIAGNOSIS” (AC IMMUNE SA, priority 2021, published 2025)
Counter-ions that a name gives are not always drawn.

Target: T1, PD brain-derived alpha-synuclein aggregates (Homo sapiens, UniProt P37840)
T1 construct: from tissue; host or cells: human PD donor brain tissue, sarkosyl-insoluble fraction
Experiment: Micro-radiobinding competition assay for the determination of binding affinity
Settings: for Ki: compound concentrations 0.05 nM to 2 μM, nonlinear regression, one site model
Method: The procedure was adapted from the protocol described in Spillantini et al., 1998. Frozen tissue blocks from PD donors were thawed on ice and homogenized using a glass dounce homogenizer. The homogenate was then centrifuged at 11,000×g (12,700 RPM) in an ultracentrifuge (Beckman, XL100K) for 20 minutes at 4° C. using a pre-cooled 70.1 rotor (Beckman, 342184). Pellets were resuspended in extraction buffer [10 mM Tris —HCl PH 7.4, 10% sucrose, 0.85 mM NaCl, 1% protease inhibitor (Calbiochem 539131), 1 mM EGTA, 1% phosphatase inhibitor (Sigma P5726 and P0044)] and centrifuged at 15,000×g (14,800 RPM, a 70.1 Ti rotor) for 20 minutes at 4° C. Pellets were discarded and sarkosyl (20% stock solution, Sigma L7414) was added to the supernatants to a final concentration of 1% at room temperature for one hour. This solution was then centrifuged at 100,000×g (38,000 RPM, 70.1 Ti rotor) for one hour at 4° C. Pellets containing enriched alpha-synuclein aggregates were resuspended in PBS and stored at −80° C. until use.
PD brain-derived alpha-synuclein aggregates were spotted onto microarray slides. The slides were incubated with tritiated reference alpha-synuclein ligand at 6 nM, 20 nM or 30 nM and the example compounds (non-radiolabelled) at 1 μM and 100 nM. In some cases, the non-radiolabelled example compounds were further assessed for a range of different concentrations, varying from 0.05 nM to 2 μM. After incubation, slides were washed and scanned by a real-time autoradiography system (BeaQuant, ai4R). Quantification of the signal was performed by using the Beamage image analysis software (ai4R). Non-specific signal was determined with an excess of non-radiolabelled reference alpha-synuclein ligand (2 μM) and specific binding was calculated by subtracting the non-specific signal from the total signal. Competition was calculated as percent, where 0% was defined as the specific binding in the presence of vehicle and 100% as the values obtained in the presence of excess of the non-radiolabelled reference alpha-synuclein ligand. Ki values were calculated in GraphPad Prism7 by applying a nonlinear regression curve fit using a one site, specific binding model. All measurements were performed with at least two technical replicates. For compounds tested in more than one experiment, the mean of the replicates or Ki values in independent experiments is reported.
Results: Example compounds were assessed for their potency to compete with the binding of a tritiated reference alpha-synuclein ligand to PD patient brain-derived alpha-synuclein aggregates. Results of the micro-radiobinding competition assay for the example compounds tested are shown in Table 2 as: % competition at 1 μM and 100 nM.

[1] = 100 nM non-radiolabelled example compound, competition over tritiated reference alpha-synuclein ligand (6 nM, 20 nM or 30 nM)
[2] = 1 μM non-radiolabelled example compound, competition over tritiated reference alpha-synuclein ligand (6 nM, 20 nM or 30 nM)

Micro-radiobinding competition assay Competition at 100 nM (%) [1] [%]	Micro-radiobinding competition assay Competition at 1 μM (%) (1 μM non-radiolabelled example compound, competition over tritiated reference alpha-synuclein ligand (6 nM, 20 nM or 30 nM), hydrochloride)	inhibition at 0.1 µM [1] [%]	inhibition at 1 µM [2] [%]	Ki [µM]	Compound
37	87				Cc1ccc(N2Cc3cn(-c4ccc(N5CCC(F)C5)nc4)nc3C2=O)cn1 (stereo in doubt) [Example 13, 2-{6-[(3S)-3-fluoropyrrolidin-1-yl]pyridin-3-yl}-5-(6-methylpyridin-3-yl)-2H,4H,5H,6H-pyrrolo[3,4-c]pyrazol-6-one hydrochloride]
		26	60		COc1cncc(N2Cc3cn(-c4ccc(N5CC[C@H](F)C5)nc4)nc3C2=O)c1 [Example 6, 2-{6-[(3S)-3-fluoropyrrolidin-1-yl]pyridin-3-yl}-5-(5-methoxypyridin-3-yl)-2H,4H,5H,6H-pyrrolo[3,4-c]pyrazol-6-one]
		74	97	0.03	O=C1c2nn(-c3ccc(N4CC[C@@H](F)C4)nc3)nc2CN1c1cccnc1 [Example 10, 2-{6-[(3R)-3-fluoropyrrolidin-1-yl]pyridin-3-yl}-5-(pyridin-3-yl)-2H,4H,5H,6H-pyrrolo[3,4-d][1,2,3]triazol-4-one]
		41	90		O=C1c2nn(-c3ccc(N4CC[C@H](F)C4)nc3)cc2CN1c1cncs1 [Example 11, 2-{6-[(3S)-3-fluoropyrrolidin-1-yl]pyridin-3-yl}-5-(1,3-thiazol-5-yl)-2H,4H,5H,6H-pyrrolo[3,4-c]pyrazol-6-one]
		69	90	0.04	Cc1ncc(N2Cc3cn(-c4ccc(N5CC[C@H](F)C5)nc4)nc3C2=O)s1 [Example 16, (S)-2-(6-(3-fluoropyrrolidin-1-yl)pyridin-3-yl)-5-(2-methylthiazol-5-yl)-4,5-dihydropyrrolo[3,4-c]pyrazol-6(2H)-one]
		54	81	0.078	Cn1cc(N2Cc3cn(-c4ccc(OCCF)nc4)nc3C2=O)cn1 [Example 18, 2-(6-(2-fluoroethoxy)pyridin-3-yl)-5-(1-methyl-1H-pyrazol-4-yl)-4,5-dihydropyrrolo[3,4-c]pyrazol-6(2H)-one]
		74	101		Cn1cc(N2Cc3cn(-c4ccc(N5CC[C@@H](F)C5)nc4)nc3C2=O)cn1 [Example 5, 2-{6-[(3R)-3-fluoropyrrolidin-1-yl]pyridin-3-yl}-5-(1-methyl-1H-pyrazol-4-yl)-2H,4H,5H,6H-pyrrolo[3,4-c]pyrazol-6-one]
		55	86		Cc1ncc(N2Cc3cn(-c4ccc(OCCF)nc4)nc3C2=O)s1 [Example 20, 2-(6-(2-fluoroethoxy)pyridin-3-yl)-5-(2-methylthiazol-5-yl)-4,5-dihydro-pyrrolo[3,4-c]pyrazol-6(2H)-one]
		71	92		Cc1ncc(N2Cc3cn(-c4ccc(N5CC[C@@H](F)C5)nc4)nc3C2=O)s1 [Example 15, (R)-2-(6-(3-fluoropyrrolidin-1-yl)pyridin-3-yl)-5-(2-methylthiazol-5-yl)-4,5-dihydropyrrolo[3,4-c]pyrazol-6(2H)-one]
		10	52		COc1cncc(N2Cc3cn(-c4ccc(N5CC[C@@H](F)C5)nc4)nc3C2=O)c1 [Example 7, 2-{6-[(3R)-3-fluoropyrrolidin-1-yl]pyridin-3-yl}-5-(5-methoxypyridin-3-yl)-2H,4H,5H,6H-pyrrolo[3,4-c]pyrazol-6-one]
		31	63	0.214	O=C1c2nn(-c3ccc(OCCF)nc3)cc2CN1c1cccnc1 [Example 17, 2-(6-(2-fluoroethoxy)pyridin-3-yl)-5-(pyridin-3-yl)-4,5-dihydropyrrolo[3,4-c]pyrazol-6 (2H)-one]
		28	75		Cn1cc(N2Cc3cn(-c4ccc(N5CC[C@H](F)C5)nc4)nc3C2=O)cn1 [Example 4, 2-{6-[(3S)-3-fluoropyrrolidin-1-yl]pyridin-3-yl}-5-(1-methyl-1H-pyrazol-4-yl)-2H,4H,5H,6H-pyrrolo[3,4-c]pyrazol-6-one]
		64	94	0.052	O=C1c2nn(-c3ccc(N4CC[C@@H](F)C4)nc3)cc2CN1c1cncs1 [Example 12, 2-{6-[(3R)-3-fluoropyrrolidin-1-yl]pyridin-3-yl}-5-(1,3-thiazol-5-yl)-2H,4H,5H,6H-pyrrolo[3,4-c]pyrazol-6-one]
		46	78	0.086	O=C1c2nn(-c3ccc(OCCF)nc3)cc2CN1c1cncs1 [Example 19, 2-(6-(2-fluoroethoxy)pyridin-3-yl)-5-(thiazol-5-yl)-4,5-dihydropyrrolo [3,4-c]pyrazol-6(2H)-one]
		37	71	0.226	Cc1ccc(N2Cc3cn(-c4ccc(N5CC[C@@H](F)C5)nc4)nc3C2=O)cn1 [Example 8, 2-{6-[(3R)-3-fluoropyrrolidin-1-yl]pyridin-3-yl}-5-(6-methylpyridin-3-yl)-2H,4H,5H,6H-pyrrolo[3,4-c]pyrazol-6-one]
		37	87		Cc1ccc(N2Cc3cn(-c4ccc(N5CC[C@H](F)C5)nc4)nc3C2=O)cn1 [Example 9, 2-{6-[(3S)-3-fluoropyrrolidin-1-yl]pyridin-3-yl}-5-(6-methylpyridin-3-yl)-2H,4H,5H,6H-pyrrolo[3,4-c]pyrazol-6-one]
		34	80	0.115	O=C1c2nn(-c3ccc(N4CC[C@H](F)C4)nc3)cc2CN1c1cccnc1 [Example 2, 2-{6-[(3S)-3-fluoropyrrolidin-1-yl]pyridin-3-yl}-5-(pyridin-3-yl)-2H,4H,5H,6H-pyrrolo[3,4-c]pyrazol-6-one]
		0	66		Cn1cc(N2Cc3cn(-c4ccc(N5CCCC(F)CC5)nc4)nc3C2=O)cn1 (centres unmarked) [Example 14, 2-(6-(4-fluoroazepan-1-yl)pyridin-3-yl)-5-(1-methyl-1H-pyrazol-4-yl)-4,5-dihydropyrrolo[3,4-c]pyrazol-6(2H)-one hydrochloride]
		58	86	0.084	O=C1c2nn(-c3ccc(N4CC[C@@H](F)C4)nc3)cc2CN1c1cccnc1 [Example 1, 2-{6-[(3R)-3-fluoropyrrolidin-1-yl]pyridin-3-yl}-5-(pyridin-3-yl)-2H,4H,5H,6H-pyrrolo[3,4-c]pyrazol-6-one]
		38	89	0.054	Cn1cc(N2Cc3cn(-c4ccc(N5CC(F)C5)nc4)nc3C2=O)cn1 [Example 3, 2-(6-(3-fluoroazetidin-1-yl)pyridin-3-yl)-5-(1-methyl-1H-pyrazol-4-yl)-4,5-dihydropyrrolo[3,4-c]pyrazol-6(2H)-one]
